Measurements reported in US7781580B2, “Stilbene derivatives as new cancer therapeutic agents” (Virginia Commonwealth University, priority 2007, dated 2010).
Structures can show the parent of a compound that is named as a salt.

Assays:
[1] = test system: SNU423 hepatocellular carcinoma cells; experiment: Alamar Blue cell growth inhibition, SNU423; assay type: cell-based
Description: Cell growth was measured by Alamar Blue™ staining and the OD absorbance at 570 and 600 nm was determined by a microplate reader. The percentage of cell growth inhibition was calculated and compared with the control cells that were treated with 0.1% DMSO, the vehicle for the stilbene compounds.
(§1) Various cancer cell lines were grown in 96-well plates for drug sensitivity assays. Once cells achieved 50% confluence, the incubation media was changed to the same cell growth media with different concentrations of the tested compounds or vehicle alone. Cells were then incubated for 48 hours before the cell growth inhibition study. To determine the degree of cell growth inhibition, 1/10 volume of Alamar Blue™ solution was added to each well and optical density (OD) at 570 and 600 nm was determined. The percentage of growth inhibition was calculated according to the manufacturer's formula as follows: The percentage of growth is [(117216×A570)−(80586×A600)]/[(117216×A^o570)−(80586×A^o600)]×100. In this formula, A570 is the absorbance of the treated samples at 570 nm; A600 is the absorbance of the treated samples at 600 nm; A^o570 is the absorbance of the […] samples at 570 nm; and A^o600 is the absorbance of the untreated samples at 600 nm. The two constants, 117216 and 80586, are the extinction coefficients of Alamar Blue™ at 570 and 600 nm respectively. Each concentration was repeated in triplicate to minimize the error.
(§2) We first tested the cytotoxic effect of various stilbene derivatives for their in vitro efficacy of suppressing tumor cell proliferation. Cells were first plated in 96-well plates at 50% confluence and treated with 0, 0.01, 0.03, 0.1, 0.3, 1.0, 3.0, 10 μM concentrations of stilbene derivatives for 48 hours in triplicate. Alamar Blue™ reagent was added into each well at 1/10 volume and incubated for 2 hours before quantification of the absorbance at 570 and 600 nm.

[2] = test system: UCI101 ovarian cancer cells; experiment: Alamar Blue cell growth inhibition, UCI101; assay type: cell-based; details: for relative potency / activity: UCI101, 48 hours
Description: Cell growth was measured by AlamarBlue™ staining and the percentage of cell growth inhibition was calculated and compared with the control cells that were treated with 0.1% DMSO, the vehicles for the stilbene compounds.
Cells were treated with the tested drug for 2 days before analysis of cell growth by Alamar Blue™ staining. Cells treated with 0.1% DMSO were used as control and set as 100%.
(§3) (a) In vitro sensitivity of UCI101 cells toward three potential stilbene prodrugs, 5a-c, was tested in 96-well plates using Alamar Blue™ assays to determine cell growth inhibition. […] (b) 5b induces cell cycle change and apoptosis in UCI101 cells. Cells were incubated with 5b at 1, 3, 10 μM for 16 hours followed by PI staining and flow cytometry analysis. A subG0/1 population, representing apoptotic cells, appeared along with a decrease of the G1/G2 ratio after cells were treated with 3 μM 5b. Higher concentration (10 μM) of 5b completely killed cells, as was the case with stilbene 4a at […]. (c) Cells treated with stilbene 4a and 5b were stained with phospho-histone 3B, a mitotic marker. The positive signals of phospho-histone 3B were shown in green and nuclei were stained with DAPI in blue. […] (d) In vivo efficacy of 5b compared with stilbene 4a. Nude mice were injected with UCI101 ovarian cancer cells and treated with 7 doses of 5b,c or stilbene 4a every 2-3 days. Tumor volume was calculated and plotted against days.
as §1, §2

[3] = test system: SKOV3 ovarian cancer cells; experiment: Alamar Blue cell growth inhibition, SKOV3; assay type: cell-based
Description: Cells were incubated with various concentrations of the compounds for 48 hours. Cell growth was measured by Alamar Blue™ staining and the percentage of cell growth inhibition was calculated and compared with the control cells that were treated with 0.1% DMSO, the vehicle for the stilbene compounds.
as §1

Tubulin (>99% pure) = experiment: tubulin polymerization assay (OD 340 nm); assay type: biochemical; details: OD340 nm; nocodazole and paclitaxel 10 μM
Description: FIG. 3a-d. Stilbenes inhibit tubulin polymerization. (a) Effect of stilbene 4a. Pure tubulin was incubated with various concentrations of stilbene 4a, 10 μM nocodazole, and 10 μM paclitaxel in the polymerization buffer. The OD at 340 nm was monitored every minute by SpectraMAX 250 and plotted against time. (b) Effect of stilbene 4c. (c) Comparison of same concentrations of stilbenes 4a, 4a trans, 4c and 4c trans with control. […] Tubulin was incubated with [^3H]-colchicine and various concentrations of different stilbenes for 20 min. Tubulin was then separated from the unbound [^3H]-colchicine by Microcon-30 and washed three times with PBS. The radioactivity of the tubulin was counted. […] All experiments were done in triplicates.
The tubulin polymerization assay kit was purchased from Cytoskeleton (Denver, Colo.). Tubulin (>99% pure) was mixed with general tubulin buffer (GTB, 80 mM PIPES pH 6.9, 2 mM MgCl2, 0.5 mM EGTA, and 1 mM GTP) in a 96-well plate at 37° C. Absorbance at 340 nm was measured every 1 min for 60 min by SpectraMAX 250 (Molecular Devices, Sunnyville, Calif.). Analysis of the results was performed by SoftMAX Pro version 1.2.0 from the same company.

[4] = test system: UCI101 ovarian cancer cells (xenograft); experiment: UCI101 xenograft in nude mice; assay type: in vivo
Description: as §3
We next tested whether 5b could be converted into stilbene 4a in circulation. […] Blood was collected at 20, 60 and 240 min after injection for spot check of stilbene 4a level in serum. […] The in vivo efficacy of 5b and 5c was compared to stilbene 4a in a pilot study using 5 mice in each group.

[5] = test system: HL60 leukemic cells (xenograft); experiment: HL60 xenograft model in SCID mice; assay type: in vivo; details: 5 mg/kg/day for 4 days
Description: FIG. 20. Effect of stilbene 4a in vivo. (a) Induction of cell death in vivo by stilbene 4a. Tumor was harvested at 24 hours after treatment for TUNEL assay. (b) Histological sections of tumor. Tumor harvested at 24 hours after injection of stilbene 4a was analyzed by H & E staining. The area with lighter color is the necrotic region. (c) Tumor growth suppression. SCID mice were injected subcutaneously with 5×10^6 HL60 cells at each flank. Once the diameter of tumor reached 5 mm in diameter in majority of mice, mice were treated with 5 daily injection of stilbene 4a. Tumor volume was calculated by the long and short axis of tumor and plotted against days. Each group contains 5 mice.
HL60 leukemic cells were injected subcutaneously into ICR-scid mice (Taconic Inc.) on flank. After tumor becomes visible after 12 days, Mice will be treated with stilbene 4a by intravenous injection after dissolved in 10% DMSO in normal saline. For acute effect study, mice were sacrificed 24 hours after injection and tumor and bone marrow were harvested for histological staining and flow cytometry analysis. For long term effect study, stilbenes were injected intravenously from tail veins at 2 or 10 mg/kg for 5 consecutive days. Negative control mice were treated with 10% DMSO in normal saline and positive control mice were treated with Ara-C at 5 mg/kg. Tumor volume was measured twice a week for 4 weeks by the long and short axes of tumor. Volume was calculated by the formula ab^2/2, in which “a” represents the long axis and “b” the short axis of tumor. Mice were euthanized if the calculated tumor reached 10% of the body weight.

| melting point [°C] | Structure (SMILES) | relative potency / activity [2] | other results |
| --- | --- | --- | --- |
| – | COc1cccc2c1C(=O)c1c(O)c3c(c(O)c1C2=O)C[C@@](O)(C(=O)CO)C[C@@H]3O[C@H]1C[C@H](N)[C@H](O)[C@H](C)O1 [doxorubicin, reference compound] | – | relative potency ([1]; SNU423): potency similar to that of 10a |
| – | COc1ccc(/C=C\c2ccc3c(ccn3C)c2)cc1N [14b, (Z)-2-Methoxy-5-[2-(1-methyl-1H-indol-5-yl)-vinyl]-phenylamine] | less potent than stilbene 4a by one log | – |
| – | COc1cc2c(c(OC)c1OC)-c1ccc(OC)c(=O)cc1[C@@H](NC(C)=O)CC2 [colchicine, reference compound] | – | effective / active concentration ([3]; SKOV3, 48 hours): 0.1 µM |
| – | COc1cc(/C=C\c2ccc(OC)c(C(=O)O)c2)cc(OC)c1 [4d, (Z)-5-[2-(3,5-Dimethoxy-phenyl)-vinyl]-2-methoxybenzoic acid.] | – | effective concentration, blocking cell proliferation ([1]; SNU423, 48 hours): > 10 µM; activity ([3]; SKOV3): not active |
| 134 to 136 | COc1cc(/C=C/c2ccc(OC)c(N)c2)cc(OC(C)C)c1.Cl | – | – |
| – | COc1cc(/C=C\c2ccc(OC)c(N)c2)cc(OCC(=O)O)c1 [10f, (Z)-{3-[2-(3-Amino-4-methoxy-phenyl)-vinyl]-5-methoxy-phenoxy}-acetic acid] | not active | – |
| – | COc1cc(/C=C\c2ccc(OC)c(NC(=O)NCCN3CCOCC3)c2)cc(OC)c1 [5a, (Z)1-{5-[2-(3,5-Dimethoxy-phenyl)-vinyl]-2-methoxy-phenyl}-3-(2-morpholin-4-yl-ethyl)-urea, hydrochloride] | showed no activity | – |
| 137 to 140 | C=CCOc1cc(/C=C/c2ccc(OC)c(N)c2)cc(OC)c1.Cl | – | – |
| – | COc1cc(/C=C\c2ccc(OC)c(CN3C(=O)c4ccccc4C3=O)c2)cc(OC)c1 [3e, (Z)-2-{5-[2-(3,5-Dimethoxy-phenyl)-vinyl]-2-methoxy-benzyl}-isoindole-1,3-dione] | – | effective concentration, cell growth suppression ([2]; UCI101): > 3 µM |
| – | COc1cc(/C=C\c2ccc3ccn(C)c3c2)cc(OC)c1 [13b, (Z)-6-[2-(3,5-Dimethoxy-phenyl)-vinyl]-1-methyl-1H-indole] | less potent than stilbene 4a by one log | – |
| – | COC(=O)Nc1nc2ccc(C(=O)c3cccs3)cc2[nH]1 [nocodazole, reference compound] | – | effect on tubulin polymerization (Tubulin (>99% pure)): suppressed |
| – | COc1cc(/C=C\c2ccc(OC)c(NC(=O)OCCOCCOCCO)c2)cc(OC)c1 [5c, (Z)-{5-[2-(3,5-Dimethoxy-phenyl)-vinyl]-2-methoxy-phenyl}-carbamic acid-2-[2-(2-hydroxy-ethoxy)-ethoxy]-ethyl ester] | showed no activity | tumor growth versus control mice ([4]; 7 doses every 2-3 days): tumor growth rate the same as that of control mice; mouse weight ([4]; mouse, in vivo): did not show any significant change |
| – | Nc1ccn([C@@H]2O[C@H](CO)[C@@H](O)[C@@H]2O)c(=O)n1 [Ara-C, reference compound] | – | adverse effect [5]: Ara-C-induced conjunctivitis |
| 120 to 122 | COc1cc(/C=C\c2ccc(OC)c(N)c2)cc(OC(C)C)c1.Cl | – | – |
| 157 to 159 | COc1cc(/C=C\c2ccc(OC)c(N)c2)cc(OCCO)c1 (as salt: hydrochloride) [10a, (Z)-2-{3-[2-(3-Amino-4-methoxy-phenyl)-vinyl]-5-methoxy-phenoxy}-ethanol, hydrochloride] | – | – |
| 147 to 149 | CCOc1cc(/C=C/c2ccc(OC)c(N)c2)cc(OC)c1.Cl | – | – |

| Structure (SMILES) | melting point [°C] | relative potency / activity [2] | other results |
| --- | --- | --- | --- |
| C=CCOc1cc(/C=C\c2ccc(OC)c(N)c2)cc(OC)c1.Cl [10e, (Z)-5-[2-(3-Allyloxy-5-methoxy-phenyl)-vinyl]-2-methoxy-phenylamine, hydrochloride] | 122 to 125 | active but less effective than stilbene 4a | – |
| CCOc1cc(/C=C\c2ccc(OC)c(N)c2)cc(OC)c1.Cl [10b, (Z)-5-[2-(3-Ethoxy-5-methoxy-phenyl)-vinyl]-2-methoxy-phenylamine, hydrochloride] | 127 to 131 | active but less effective than stilbene 4a | – |
| COc1ccc(/C=C\c2ccc3[nH]ccc3c2)cc1N.O=C(O)C(=O)O [14a, (Z)-5-[2-(1H-Indol-5-yl)-vinyl]-2-methoxy-phenylamine, oxalate salt] | 112 to 115 | not active | – |
